In patent US20100022559A1, “BISOXIMES AS FUNGICIDES” (BAYER CROPSCIENCE AG, priority 2006, published 2010):

Test: logP determination by HPLC on a reversed-phase column (C 18), EEC Directive 79/831 Annex V.A8
Type: physicochemical
Conditions: [a] acidic range, pH 2.3, 0.1% aqueous phosphoric acid and acetonitrile
Protocol: The stated logP values were determined in accordance with EEC Directive 79/831 Annex V.A8 by HPLC (high performance liquid chromatography) on a reversed-phase column (C 18). Temperature: 43° C.

logP	Compound
0.49^[a]	C/C(=N\OCC(C)CON)c1cc(C)cc(C)n1 (racemic) [XII-9]
2.33^[a]	C/C(=N\OCC(C)CON)c1cc(C(F)(F)F)cc(C)n1 (racemic) [XII-15]

Same assay, conditions: [b] LC-MS, acidic range, pH 2.7, 0.1% aqueous formic acid and acetonitrile

logP	Compound
0.49^[b]	C/C(=N\OCC(C)CON)c1cc(C)cc(C)n1 (racemic) [XII-9]
2.33^[b]	C/C(=N\OCC(C)CON)c1cc(C(F)(F)F)cc(C)n1 (racemic) [XII-15]

Same assay, conditions: [c] LC-MS, neutral range, pH 7.8, 0.001 molar aqueous ammonium bicarbonate solution and acetonitrile

logP	Compound
3.38^[c]	C/C(=N\OCC(C)CON)c1cc(C(F)(F)F)cc(C)n1 (racemic) [XII-15]

Same assay, conditions: method marked [a] in Table 1

logP	Compound
3.92^[a]	CCC(=NOCC(C)(C)CON=C(CC)c1cc(C)cc(C)n1)c1cc(C)cc(C)n1 (mixture of isomers) [Compound 571]
3.99^[a]	Cc1cccc(C(=NOCC2(CON=C(c3cccc(C)n3)C3CC3)CC(CC(C)C)=NO2)C2CC2)n1 (stereo not drawn) [compound 653]

Same assay, conditions: method marked [b] in Table 1

Compound	logP
CC(=NOCC(C)CON=C(C)c1ccc2ccc(C)cc2n1)c1ccc2ccc(C)cc2n1 (stereo not drawn) [compound 748]	7.36^[b]
N/C(=N\OC/C=C/CO/N=C(\N)c1ncc(F)cc1F)c1ncc(F)cc1F [compound 723]	2.42^[b]

Now from value to compound:

logP	Compound
3.12^[b]	CC(=NOCC#CCON=C(C)c1cccc(C)n1)c1cccc(C)n1 [Compound 706]
4.57^[b]	CC(=NOCC(C)(C)CON=C(c1cccc(C)n1)C(C)C)c1cccc(C)n1 [compound 547]
2.71^[b]	Cc1cccc(C(N)=NOCC(C)CON=C(N)c2cccc(C)n2)n1 (stereo not drawn) [compound 689]
4.67^[b]	C/C(=N\OCC1(CO/N=C(\C)c2cccc(C)n2)CC(c2cccc(Cl)c2)=NO1)c1cccc(C)n1 [compound 603]
5.49^b]	CC(=NOCC1(CON=C(C)c2cccc(C)n2)CCCC1)c1cccc(C)n1 [Compound 587]

Same assay, conditions: method marked [c] in Table 1

logP	Compound
7.36^[c]	CC(=NOCC(C)CON=C(C)c1ccc2ccc(C)cc2n1)c1ccc2ccc(C)cc2n1 (stereo not drawn) [compound 748]
7.33^[c]	CC(=NOCC1(CON=C(C)c2cccc(C)n2)CCCC1)c1cccc(C)n1 [Compound 587]

Same assay, conditions: method marker [a] (footnote not shown); isomer A / isomer B / isomer mixture as noted in the cell

Compound	logP
CC(=NOCC(C)CON=C(C)c1ccc(Cl)nc1)c1ccc(Cl)nc1 (stereo not drawn) [compound 106]	4.79^[a]
Cc1ccc(C(=NOCCCON=C(c2ccc(C)c(C)n2)C(C)C)C(C)C)nc1C (mixture of isomers) [compound 238]	4.94^[a]
CC(=NOCC1(CON=C(C)c2cccc(C)n2)CCO1)c1ccccn1 (racemic) [compound 26]	2.29^[a]

Results, then the compound that gave them:

logP	Compound
5.52^[a] (isomer B)	Cc1cccc(C(=NOCCCON=C(c2cccc(C)n2)C(C)C)C(C)C)n1 (single isomer, unassigned) [Compound 88]
2.24^[a]	CC(=NOCC1(CON=C(C)c2cccc(C)n2)CO1)c1cccc(C)n1 (stereo not drawn) [compound 220]
3.51^]a] (isomer B)	Cc1cccc(C(=NOCC(C)CON=C(c2cccc(C)n2)C2CC2)C2CC2)n1 (single isomer, unassigned) [Compound 164]
2.75^[a]	Cc1cccc(C(CS(C)(=O)=O)=NOCCCON=C(CS(C)(=O)=O)c2cccc(C)n2)n1 [compound 170]

Same assay, conditions: method marker [b]; isomer A / isomer B / isomer mixture as noted in the cell

Compound	logP
CCC(=NOCC(C)CON=C(CC)c1nc(C)c(C)c(C)n1)c1nc(C)c(C)c(C)n1 (stereo not drawn) [Compound 254]	4.38^[b]
C=C(CON=C(C)c1cccnc1Cl)CON=C(C)c1cccnc1Cl [compound 148]	3.53^[b]
Cc1nc(/C(N)=N/OCO/N=C(\N)c2nc(C)c(Cl)c(C)n2)nc(C)c1Cl [compound 41]	2.36^[b]
C=C(CON=C(C)c1ccc(Cl)nc1)CON=C(C)c1ccc(Cl)nc1 [Compound 57]	4.38^[b]
CC(=NOCC1(CON=C(C)c2cccc(C)n2)CCO1)c1ccccn1 (racemic) [compound 26]	2.43^[b]
CC(=NOCCCON=C(C)c1cnc(-c2ccccc2)s1)c1cnc(-c2ccccc2)s1 [compound 49]	7.07^[b]
C=C(CON=C(C)c1cccs1)CON=C(C)c1cccs1 (single isomer, unassigned) [compound 79]	4,56^[b] (isomer A)

Further lines, results first:

logP	Compound
1.84^[b]	CC(=NOCCOCCON=C(C)c1cccc(C)n1)c1cccc(C)n1 [Compound 181]
5.03^[b]	C=C(CON=C(C)c1cccc(C)c1)CON=C(C)c1cccc(C)n1 [compound 205]

Same assay, conditions: reversed-phase HPLC column (C 18); HCO2H; HPLC reversed-phase column (C 18), 43° C.; read-out: logP (HCO2H)

chromatographic logP	Compound
3.76	C/C(=N\OCC(C)(C)CCl)c1cccc(C)n1 [VI-1, (1E)-1-(6-methylpyridin-2-yl)ethanone O-(3-chloro-2,2-dimethylpropyl)oxime]
2.31	C/C(=N\OCC(C)CO/N=C(\C)c1cccc(C)n1)c1cccc(C)n1 [1-(6-methylpyridin-2-yl)ethanone O,O′-(2-methylpropane-1,3-diyl)oxime]

Same assay, conditions: value marked [a]

Compound	logP
CC(=NOCC1(CON=C(C)c2cc(Cl)cc(C)n2)CC1)c1cc(Cl)cc(C)n1 [compound 805]	7.02^[a)
CC(=NOCCCON=C(C)c1cc(C)n(C)n1)c1cc(C)n(C)n1 [compound 259]	2.70^[a]

The next lines start with the values.

logP	Compound
4.04^[a]	Cc1cccc(C(=NOCC(C)(C)CON=C(c2cccc(C)n2)C2CC2)C2CC2)n1 (mixture of isomers) [Compound 281]
6.11^[a]	CCC(=NOCC(C)(C)CON=C(CC)c1cccc(C)n1)c1cccc(C)n1 [Compound 277]
4.58^[a]	Cc1cccc(C(Cl)=NOCC(C)CON=C(Cl)c2cccc(C)n2)n1 (stereo not drawn) [Compound 824]

Same assay, conditions: value marked [b]

Compound	logP
C=C(CON=C(C)c1ccncc1)CON=C(C)c1cccc(C)n1 [compound 467]	1.88^[b]
CC(=NOC/C=C/CON=C(C)c1nc(C)c(C)s1)c1nc(C)c(C)s1 (single isomer, unassigned) [compound 767]	4.92^[b] (isomer B)
CC(=NOC(C)CC(C)ON=C(C)c1ccc(C)c(C)n1)c1ccc(C)c(C)n1 (stereo not drawn) [Compound 322]	3.4^[b]
C=C(CON=C(C)c1ccc(Cl)cc1)CON=C(C)c1cccc(C)n1 [compound 471]	5.48^[b]
C=C(CON=C(C)c1cccc(C)n1)CON=C(C)c1cc2ccccc2o1 [compound 404]	4.57^[b]
CC(=NOCC(C)CON=C(C)c1cccc(C)n1)c1cccnc1 (stereo not drawn) [compound 438]	2.34^[b]
CC(=NOCCCCCCON=C(C)c1cccc(C)n1)c1cnccn1 [compound 513]	4.25^[b]

Other lines, results leading:

logP	Compound
4.46^[b]	C=C(CON=C(C)c1cccc(OC)c1)CON=C(C)c1cccc(C)n1 [compound 470]
3.65^[b]	CC(=NOCC(C)(C)CON=C(C)c1cccc(C)n1)c1cc(C)ccn1 [compound 409]
2.08^[b]	CC(=NOCC1OC1CON=C(C)c1cccc(C)n1)c1cccc(C)n1 (racemic) [compound 286]
5.31^[b]	COc1cccc(C(C)=NOCC(C)(C)CON=C(C)c2cccc(C)n2)c1 [compound 484]
3.28^[b]	CC(=NOCCCCON=C(C)c1ccnc(C)n1)c1cccc(C)n1 [compound 336]
3.56^[b] (isomer B)	CC(=NOCCCCON=C(C)c1sc(C)nc1C)c1cccc(C)n1 (single isomer, unassigned) [compound 374]
6.03^[b]	C=C(CON=C(C)c1cccc(C)n1)CON=C(C)c1cccc(CC(C)C)n1 [compound 352]
4.97^[b]	CC(=NOCCCCON=C(C)c1ccc(Cl)s1)c1cccc(C)n1 [compound 446]
2.17^[b]	CC(=NOC[C@@H]1O[C@H]1CON=C(C)c1cccc(C)n1)c1cccc(C)n1 [compound 285]
3.11^[b]	COc1cc(C)nc(C(C)=NOCCCCON=C(C)c2cccc(C)n2)c1 [compound 449]
5.48^[b] (isomer B)	CC(=NOCCCCON=C(CC(C)C)c1cccc(C)n1)c1cccc(C)n1 (single isomer, unassigned) [compound 530]
4.15^[b]	COc1cc(C)nc(C(C)=NOCCCCCCON=C(C)c2cccc(C)n2)c1 [compound 462]
3.39^[b]	CC(=NOCCCCCCON=C(C)c1nccc(C)n1)c1cccc(C)n1 [Compound 509]

Same assay, conditions: value marked [c]

logP	Compound
6.79^[c]	CC(=NOC(C)CC(C)ON=C(C)c1ccc(C)c(C)n1)c1ccc(C)c(C)n1 (stereo not drawn) [Compound 322]
